Results published in ChEMBL document CHEMBL4619820, “Development of Novel AKR1C3 Inhibitors as New Potential Treatment for Castration-Resistant Prostate Cancer” (J Med Chem, 2020).
pIC50: −log10 of the molar value. Activity calls are given as the source filed them. No cut-off for these calls is given here.

Tests used:
[1] = target: T1, Aldo-keto reductase family 1 member C3 (Homo sapiens, UniProt P42330); experiment: Inhibition of recombinant AKR1C3 (unknown origin) assessed as reduction in S-tetralol-induced dehydrogenase activity by measuring NADPH level
T1 sequence (P42330 whole entry): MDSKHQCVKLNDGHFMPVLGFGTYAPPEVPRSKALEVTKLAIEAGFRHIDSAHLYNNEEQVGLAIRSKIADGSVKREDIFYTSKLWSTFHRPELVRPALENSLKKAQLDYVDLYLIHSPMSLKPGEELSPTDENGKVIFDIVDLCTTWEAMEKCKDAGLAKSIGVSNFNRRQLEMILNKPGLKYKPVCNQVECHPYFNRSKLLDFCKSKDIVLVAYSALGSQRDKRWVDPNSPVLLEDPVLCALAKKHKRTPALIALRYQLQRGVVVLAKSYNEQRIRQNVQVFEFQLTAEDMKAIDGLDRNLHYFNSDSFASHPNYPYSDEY

[2] = target: T2, Androgen receptor (Homo sapiens) (UniProt P10275); experiment: Agonistic activity at AR in human 22Rv1 cells assessed as effect on cell number at 1 nM by CCK8 assay; type: cell-based; settings: CWR22R
T2 sequence (whole entry): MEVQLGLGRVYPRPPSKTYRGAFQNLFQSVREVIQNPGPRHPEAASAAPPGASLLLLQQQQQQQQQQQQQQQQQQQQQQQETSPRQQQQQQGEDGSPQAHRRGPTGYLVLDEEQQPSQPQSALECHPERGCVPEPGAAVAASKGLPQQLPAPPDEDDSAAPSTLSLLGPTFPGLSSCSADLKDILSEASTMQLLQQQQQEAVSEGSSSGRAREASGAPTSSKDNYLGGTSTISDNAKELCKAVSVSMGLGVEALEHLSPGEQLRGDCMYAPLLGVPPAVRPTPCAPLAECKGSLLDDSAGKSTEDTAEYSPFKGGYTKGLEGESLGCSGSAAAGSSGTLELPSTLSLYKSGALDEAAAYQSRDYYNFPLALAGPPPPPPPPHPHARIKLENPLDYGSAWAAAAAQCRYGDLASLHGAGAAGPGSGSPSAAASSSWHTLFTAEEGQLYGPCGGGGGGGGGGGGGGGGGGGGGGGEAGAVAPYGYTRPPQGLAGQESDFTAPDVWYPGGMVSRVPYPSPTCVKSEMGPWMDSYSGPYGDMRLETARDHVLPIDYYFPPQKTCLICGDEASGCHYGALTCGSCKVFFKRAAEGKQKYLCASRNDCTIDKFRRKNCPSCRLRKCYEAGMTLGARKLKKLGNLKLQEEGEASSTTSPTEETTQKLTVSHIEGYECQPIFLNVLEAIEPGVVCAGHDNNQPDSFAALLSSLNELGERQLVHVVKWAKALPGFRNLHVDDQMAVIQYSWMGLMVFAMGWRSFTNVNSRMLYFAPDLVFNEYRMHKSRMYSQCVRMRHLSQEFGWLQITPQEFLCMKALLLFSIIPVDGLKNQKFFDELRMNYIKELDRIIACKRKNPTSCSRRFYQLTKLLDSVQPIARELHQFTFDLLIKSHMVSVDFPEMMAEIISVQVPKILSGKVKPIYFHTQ

Row | pIC50 [1] | Activity [2] | SMILES
1 | 7.24 |  | N=c1oc2c(O)cccc2cc1C(=O)Nc1ccc(C(F)(F)F)cc1C(F)(F)F
2 | < 5.00 |  | COc1cccc2cc(C(=O)Nc3ccc(F)cc3)c(=N)oc12
3 | 7.68 | inactive | CCc1ccccc1NC(=O)c1cc2cccc(O)c2oc1=N
4 | 6.43 |  | N=c1oc2cccc(O)c2cc1C(=O)Nc1ccc(F)cc1
5 | 7.30 |  | N=c1oc2c(O)cccc2cc1C(=O)Nc1cccc(C(F)(F)F)c1
6 | 7.62 |  | N=c1oc2c(O)cccc2cc1C(=O)Nc1ccc(C(F)(F)F)cc1
7 | 7.28 | inactive | N=c1oc2c(O)cccc2cc1C(=O)Nc1ccc(Cl)cc1
8 | 7.33 | inactive | N=c1oc2c(O)cccc2cc1C(=O)Nc1cc(F)c(F)c(F)c1
9 | < 5.00 |  | N=c1oc2ccc(O)cc2cc1C(=O)Nc1ccc(F)cc1
10 | 7.33 |  | CC(C)c1cccc(NC(=O)c2cc3cccc(O)c3oc2=N)c1
11 | < 5.00 | inactive | N=c1oc2c(O)cccc2cc1C(=O)Nc1ccc(O)cc1
12 | 7.35 | inactive | CCc1ccc(NC(=O)c2cc3cccc(O)c3oc2=N)cc1
13 | 7.19 | inactive | N=c1oc2c(O)cccc2cc1C(=O)Nc1ccccc1F
14 | < 5.00 |  | N=c1oc2cc(O)ccc2cc1C(=O)Nc1ccc(F)cc1
15 | 7.44 | inactive | N=c1oc2c(O)cccc2cc1C(=O)Nc1ccccc1
16 | < 5.00 | inactive | N=c1oc2c(O)cccc2cc1C(=O)Nc1ccccc1O
17 | 7.26 |  | Cc1cccc(NC(=O)c2cc3cccc(O)c3oc2=N)c1
18 | 7.22 | inactive | N=c1oc2c(O)cccc2cc1C(=O)Nc1cccc(O)c1
19 | 7.28 |  | Cc1ccccc1NC(=O)c1cc2cccc(O)c2oc1=N
20 | 6.66 | inactive | N=c1oc2c(O)cccc2cc1C(=O)Nc1ccc(F)c(F)c1
21 | 7.52 |  | CC(C)c1ccccc1NC(=O)c1cc2cccc(O)c2oc1=N
